From patent US9890103B2, “Process for the production of (meth)acrylic acid and derivatives and polymers produced therefrom” (Lucite International UK Limited, priority 2011, dated 2018)

Legend:
[1] = Extraction of mono- and dibasic acids from 0.1M aqueous solution into toluene or MMA/toluene mixtures; type: physicochemical; details: for degree of extraction: equal volume, in %; for Fraction Transferred to Toluene: each acid 0.1M in water, equal volume of toluene
Method: (§1) The following experimental conditions were used unless indicated otherwise:— • 0.1M Acids • 1:1 vol:vol aq:solvent • Room Temperature • 1 minutes agitation time; 5 min settling time • Solvent is toluene unless where stated • Analysis by HPLC
Monobasic and dibasic acids likely to be present in aqueous solution following partial decomposition of mono and dicarboxylic acids expected to be found from decomposition of dibasic or tribasic acids were compared for their solubility in toluene.
Each acid, initially at 0.1M solution in water was separately tested for solubility in an equal volume of toluene.
Aqueous solutions were prepared of each of the dicarboxylic acids exemplified in comparative example 2. These were extracted with an equal volume of solvent mixtures of toluene and methyl methacrylate (MMA).
In order to compare the solubilities in the organic solvents in terms of partition coefficients each sample was converted to a partition coefficient based on the equation: [MAA]solv=K[MAA]^2aq

[2] = Extraction of acrylic and maleic acid into toluene/butanone mixtures; type: physicochemical; details: 0.1M aq solution, equal volume
Method: as §1
In order to increase the solubility of the AA in the organic layer a higher polarity is likely to be required. The extraction of a 0.1M aq AA solution was studied with an equal volume of a mixture between toluene and butanone.

[3] = 2-butanone:o-xylene 75:25; reported maximum; cited from earlier work
[4] = Concentration dependence of MAA extraction into toluene; type: physicochemical; details: toluene/water, fitted to table 3 data
Method: as §1
A series of different concentrations of MAA in aqueous solution were extracted into toluene (1:1 by volume vs aqueous solution).
The fraction transferred increases with the concentration of MAA. The data from table 3 were plotted according to the equation: [MAA]tol=K[MAA]^2aq and the value K in the equation was evaluated as 14.6. The results are plotted in FIG. 1.

[5] = MAA extraction into toluene with added NaOH and added di/tricarboxylic acids; type: physicochemical; details: for amount of MAA transferred into toluene: 0.1M MAA aq, equivalent volume toluene
Method: The following experimental conditions were used unless indicated otherwise:— • 0.1M Acids • 1:1 vol:vol aq:solvent • Room Temperature • 1 minutes agitation time; 5 min settling time • Solvent is toluene unless where stated • Analysis by HPLC […] The results are shown in the first two rows of table 5 […] Very similar results were obtained. […] The aqueous solution was extracted with an equal volume of toluene at room temperature.

[6] = Solvent screen: transfer of methacrylic acid from aqueous solution into organic solvents; type: physicochemical; details: 0.1M MAA aq, 1:1 vol:vol, room temperature
Method: as §1
A series of solvents were tested to examine the extent of transfer of methacrylic acid from an aqueous solution using the above procedure.

[7] = MAA extraction into 2-butanone/o-xylene 75:25; type: physicochemical; details: 2-butanone:o-xylene 75:25
Source text: The efficiency of MAA extraction into a mixture of 2-butanone and o-xylene in the ratio 75:25 was studied.

[8] = Fraction of MMA in MMA/Toluene solvent mixture 0
[9] = Fraction of MMA in MMA/Toluene solvent mixture 0.1
[10] = Fraction of MMA in MMA/Toluene solvent mixture 0.2
[11] = Fraction of MMA in MMA/Toluene solvent mixture 0.3
[12] = Fraction of MMA in MMA/Toluene solvent mixture 0.4
[13] = Fraction of MMA in MMA/Toluene solvent mixture 0.5
[14] = Fraction of MMA in MMA/Toluene solvent mixture 0.6
[15] = Fraction of MMA in MMA/Toluene solvent mixture 0.7
[16] = Fraction of MMA in MMA/Toluene solvent mixture 0.8
[17] = Fraction of MMA in MMA/Toluene solvent mixture 0.9
[18] = Fraction of MMA in MMA/Toluene solvent mixture 1

Row | degree of extraction [1, 8] | degree of extraction [1, 9] | degree of extraction [1, 10] | degree of extraction [1, 11] | degree of extraction [1, 12] | degree of extraction [1, 13] | degree of extraction [1, 14] | degree of extraction [1, 15] | degree of extraction [1, 16] | degree of extraction [1, 17] | degree of extraction [1, 18] | Fraction Transferred to Toluene [1] | Compound | further results
1 | 0.64 | 1.72 | 4.5 | 8.26 | 13.02 | 20.56 | 27.82 | 38.06 | 47.19 | 56.33 | 63.45 | 0.64% | C/C(=C\C(=O)O)C(=O)O [MC, Mesaconic Acid] | –
2 | – | – | – | – | – | – | – | – | – | – | – | – | O=C(O)/C=C\C(=O)O [Maleic acid] | % extracted ([2]; 0 % Butanone in toluene): 0%; % extracted ([2]; 10 % Butanone in toluene): 0.32%; % extracted ([2]; 20 % Butanone in toluene): 1.46%; % extracted ([2]; 30 % Butanone in toluene): 3.41%; % extracted ([2]; 40 % Butanone in toluene): 5.19%; % extracted ([2]; 50 % Butanone in toluene): 10.62%; % extracted ([2]; 60 % Butanone in toluene): 10.77%; % extracted ([2]; 70 % Butanone in toluene): 15.01%; % extracted ([2]; 80 % Butanone in toluene): 19.88%; % extracted ([2]; 90 % Butanone in toluene): 27.09%; % extracted ([2]; 100 % Butanone): 34.32%
3 | 0 | 0 | 0.3 | 0.7 | 1.17 | 2.07 | 3.01 | 4.17 | 5.57 | 8.05 | 10.71 | 0% | CC(=O)C(=O)O [PY, Pyruvic Acid] | –
4 | – | – | – | – | – | – | – | – | – | – | – | – | C=CC(=O)O [Acrylic acid] | % extracted ([2]; 0 % Butanone in toluene): 5.01%; % extracted ([2]; 10 % Butanone in toluene): 14.57%; % extracted ([2]; 20 % Butanone in toluene): 25.26%; % extracted ([2]; 30 % Butanone in toluene): 35.45%; % extracted ([2]; 40 % Butanone in toluene): 44.14%; % extracted ([2]; 50 % Butanone in toluene): 53.47%; % extracted ([2]; 60 % Butanone in toluene): 57.31%; % extracted ([2]; 70 % Butanone in toluene): 63.39%; % extracted ([2]; 80 % Butanone in toluene): 67.47%; % extracted ([2]; 90 % Butanone in toluene): 70.04%; % extracted ([2]; 100 % Butanone): 65.56%
5 | 40.11 | 46.72 | 49.88 | 53.62 | 56.56 | 61.15 | 64.67 | 68.07 | 70.86 | 73.21 | 75.05 | 40.11% | C/C=C/C(=O)O [CT, Crotonic Acid] | –
6 | 54.4 | 58.85 | 63.01 | 67.25 | 70.31 | 74.28 | 76.77 | 79.42 | 81.42 | 83.02 | 84.28 | 54.4% | C=C(C)C(=O)O [MAA, Methacrylic Acid] | distribution coefficient for MAA, K [3]: ~7.00; K in [MAA]tol=K[MAA]^2aq [4]: 14.6; MAA extraction into toluene ([5]; 0.1M MAA + 0.05M NaOH + itaconic acid to 0.1M): 44.7%; amount of MAA transferred into toluene ([5]; after addition of 0.05M sodium hydroxide): 26%; amount of MAA transferred into toluene ([5]; before NaOH addition): 48%; Average % Transfer ([6]; solvent Benzene): 50.1%; Average % Transfer ([6]; solvent Cyclohexane): 26.9%; Average % Transfer ([6]; solvent Hexane): 27.6%; Average % Transfer ([6]; solvent MMA): 84.3%; Average % Transfer ([6]; solvent Mixed Xylenes): 45.3%; Average % Transfer ([6]; solvent Pentane): 28.3%; Average % Transfer ([6]; solvent Toluene): 48.2%; MAA extracted into the organic phase [7]: roughly 80%
7 | 4.21 | 4.8 | 5.14 | 6.38 | 4.82 | 5.76 | 7.32 | 19.71 | 21.47 | 23.32 | 23.9 | 4.21% | CC(C)(O)C(=O)O [HIB, Hydroxyisobutyric Acid] | –

Row | Compound | degree of extraction [1, 8] | degree of extraction [1, 9] | degree of extraction [1, 10] | degree of extraction [1, 11] | degree of extraction [1, 12] | degree of extraction [1, 13] | degree of extraction [1, 14] | degree of extraction [1, 15] | degree of extraction [1, 16] | degree of extraction [1, 17] | degree of extraction [1, 18] | Fraction Transferred to Toluene [1] | further results
8 | C=C(CC(=O)O)C(=O)O [IC, Itaconic Acid] | 0 | 0 | 0.29 | 0.81 | 1.69 | 2.89 | 4.34 | 6.56 | 9.57 | 13.1 | 17.58 | 0% | –
